Laboratory results from paper PMC5428509, “Irreversible inhibition of BTK kinase by a novel highly selective inhibitor CHMFL-BTK-11 suppresses inflammatory response in rheumatoid arthritis model” (Scientific Reports, 2017).

How the values were obtained:
Assay in all cases: biochemical
Parameters in all cases: KinomeScan competition binding panel (DiscoveRx), percent of control at 1 uM
Conditions in all cases: read-out: Percent Control
EPHB4 = EPHB4 (Homo sapiens, UniProt P54760)
In short: (§1)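 KinomeScan technology used to profile binding across a panel of 456 kinases and mutants.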

GSK3A = GSK3A (Homo sapiens, UniProt P49840)
In short: as §1

PRP4 = biological target: T1, PRP4 (Homo sapiens, UniProt Q13523)
T1 construct: gene PRPF4B
In short: as §1

HPK1 = biological target: T2, HPK1 (Homo sapiens, UniProt Q92918)
T2 construct: gene MAP4K1
In short: as §1

BRAF(V600E) = BRAF(V600E) (Homo sapiens, UniProt P15056, V600E)
In short: as §1

SBK1 = SBK1 (Homo sapiens, UniProt Q52WX2)
In short: as §1

[1] = biological target: T3, ABL1(F317I)-phosphorylated (Homo sapiens, UniProt P00519, F317I)
T3 construct: phosphorylated
In short: as §1

DMPK = DMPK (Homo sapiens, UniProt Q09013)
In short: as §1

ROCK2 = ROCK2 (Homo sapiens, UniProt O75116)
In short: as §1

CTK = biological target: T4, CTK (Homo sapiens, UniProt P42679)
T4 construct: gene MATK
In short: as §1

FRK = FRK (Homo sapiens, UniProt P42685)
In short: as §1

[2] = biological target: T5, JAK3(JH1domain-catalytic) (Homo sapiens, UniProt P52333)
T5 construct: JH1domain-catalytic
In short: as §1

LATS1 = LATS1 (Homo sapiens, UniProt O95835)
In short: as §1

NIM1 = biological target: T6, NIM1 (Homo sapiens, UniProt Q8IY84)
T6 construct: gene NIM1K
In short: as §1

[3] = biological target: T7, RSK3(Kin.Dom.1-N-terminal) (Homo sapiens, UniProt Q15349)
T7 construct: gene RPS6KA2; Kin.Dom.1-N-terminal
In short: as §1

ERBB4 = ERBB4 (Homo sapiens, UniProt Q15303)
In short: as §1

PKN1 = PKN1 (Homo sapiens, UniProt Q16512)
In short: as §1

MRCKA = biological target: T8, MRCKA (Homo sapiens, UniProt Q5VT25)
T8 construct: gene CDC42BPA
In short: as §1

[4] = biological target: T9, ABL1(T315I)-nonphosphorylated (Homo sapiens, UniProt P00519, T315I)
T9 construct: nonphosphorylated
In short: as §1

ERK3 = biological target: T10, ERK3 (Homo sapiens, UniProt Q16659)
T10 construct: gene MAPK6
In short: as §1

MAP4K5 = MAP4K5 (Homo sapiens, UniProt Q9Y4K4)
In short: as §1

CLK3 = CLK3 (Homo sapiens, UniProt P49761)
In short: as §1

ACVR1 = ACVR1 (Homo sapiens, UniProt Q04771)
In short: as §1

ITK = ITK (Homo sapiens, UniProt Q08881)
In short: as §1

Sequence of LATS1 (O95835 whole entry): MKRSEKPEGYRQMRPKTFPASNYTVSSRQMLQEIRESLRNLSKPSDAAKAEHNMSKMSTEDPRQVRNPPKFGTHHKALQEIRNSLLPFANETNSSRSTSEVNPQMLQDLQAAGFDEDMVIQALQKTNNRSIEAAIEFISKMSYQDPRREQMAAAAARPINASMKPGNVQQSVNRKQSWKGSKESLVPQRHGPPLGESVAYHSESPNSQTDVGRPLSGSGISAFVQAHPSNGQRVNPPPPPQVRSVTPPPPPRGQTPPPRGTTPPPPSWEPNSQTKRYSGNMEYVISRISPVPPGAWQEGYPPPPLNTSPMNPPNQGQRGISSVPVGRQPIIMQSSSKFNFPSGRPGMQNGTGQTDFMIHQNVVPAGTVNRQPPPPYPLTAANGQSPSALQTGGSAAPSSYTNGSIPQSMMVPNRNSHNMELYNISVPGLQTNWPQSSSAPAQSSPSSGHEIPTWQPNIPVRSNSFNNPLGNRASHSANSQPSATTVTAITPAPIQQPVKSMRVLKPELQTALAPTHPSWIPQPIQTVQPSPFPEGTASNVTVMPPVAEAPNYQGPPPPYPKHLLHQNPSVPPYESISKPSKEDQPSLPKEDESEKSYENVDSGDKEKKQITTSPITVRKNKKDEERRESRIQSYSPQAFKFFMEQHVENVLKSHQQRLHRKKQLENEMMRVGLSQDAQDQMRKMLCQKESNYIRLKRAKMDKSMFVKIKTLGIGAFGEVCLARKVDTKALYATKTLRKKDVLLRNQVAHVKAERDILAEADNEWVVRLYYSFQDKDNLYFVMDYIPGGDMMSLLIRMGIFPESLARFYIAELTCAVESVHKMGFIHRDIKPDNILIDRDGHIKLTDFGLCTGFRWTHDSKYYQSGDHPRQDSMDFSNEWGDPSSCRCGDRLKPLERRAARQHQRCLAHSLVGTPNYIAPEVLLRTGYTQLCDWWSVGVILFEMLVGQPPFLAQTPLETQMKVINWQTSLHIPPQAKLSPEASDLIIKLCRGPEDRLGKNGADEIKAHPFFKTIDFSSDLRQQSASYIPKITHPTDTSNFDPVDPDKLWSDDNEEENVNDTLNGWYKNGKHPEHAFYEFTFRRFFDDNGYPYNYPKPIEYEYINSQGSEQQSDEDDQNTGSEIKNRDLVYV
T7 sequence (Q15349 whole entry): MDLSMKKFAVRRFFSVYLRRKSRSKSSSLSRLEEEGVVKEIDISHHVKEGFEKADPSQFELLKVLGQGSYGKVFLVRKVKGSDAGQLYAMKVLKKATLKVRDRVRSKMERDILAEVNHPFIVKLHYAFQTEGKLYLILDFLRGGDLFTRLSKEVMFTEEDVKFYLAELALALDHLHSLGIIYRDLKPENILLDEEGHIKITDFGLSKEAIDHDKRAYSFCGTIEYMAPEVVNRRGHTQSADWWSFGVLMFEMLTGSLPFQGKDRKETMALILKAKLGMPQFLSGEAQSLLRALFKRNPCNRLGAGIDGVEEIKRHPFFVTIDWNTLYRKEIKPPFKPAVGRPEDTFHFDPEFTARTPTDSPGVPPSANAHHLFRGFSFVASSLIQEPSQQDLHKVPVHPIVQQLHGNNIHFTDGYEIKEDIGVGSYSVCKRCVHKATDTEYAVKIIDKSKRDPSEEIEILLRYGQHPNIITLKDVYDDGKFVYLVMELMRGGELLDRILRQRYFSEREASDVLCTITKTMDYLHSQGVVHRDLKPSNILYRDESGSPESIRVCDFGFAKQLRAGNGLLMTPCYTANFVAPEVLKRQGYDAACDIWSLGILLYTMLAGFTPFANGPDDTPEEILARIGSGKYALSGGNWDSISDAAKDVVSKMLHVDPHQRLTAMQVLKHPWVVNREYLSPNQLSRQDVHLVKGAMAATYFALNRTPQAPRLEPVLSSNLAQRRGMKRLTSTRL
T6 sequence (Q8IY84 whole entry): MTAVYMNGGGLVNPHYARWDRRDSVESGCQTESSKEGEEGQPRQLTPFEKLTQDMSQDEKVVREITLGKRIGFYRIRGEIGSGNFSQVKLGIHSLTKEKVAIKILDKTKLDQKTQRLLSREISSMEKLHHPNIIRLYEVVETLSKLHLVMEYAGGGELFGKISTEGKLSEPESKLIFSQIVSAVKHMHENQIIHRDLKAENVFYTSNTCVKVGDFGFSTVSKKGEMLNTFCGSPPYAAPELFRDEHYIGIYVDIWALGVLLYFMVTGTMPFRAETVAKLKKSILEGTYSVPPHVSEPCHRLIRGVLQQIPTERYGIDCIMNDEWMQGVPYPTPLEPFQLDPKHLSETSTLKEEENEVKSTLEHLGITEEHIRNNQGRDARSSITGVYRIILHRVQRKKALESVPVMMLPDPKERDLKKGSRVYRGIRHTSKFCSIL
Sequence of MAP4K5 (Q9Y4K4 whole entry): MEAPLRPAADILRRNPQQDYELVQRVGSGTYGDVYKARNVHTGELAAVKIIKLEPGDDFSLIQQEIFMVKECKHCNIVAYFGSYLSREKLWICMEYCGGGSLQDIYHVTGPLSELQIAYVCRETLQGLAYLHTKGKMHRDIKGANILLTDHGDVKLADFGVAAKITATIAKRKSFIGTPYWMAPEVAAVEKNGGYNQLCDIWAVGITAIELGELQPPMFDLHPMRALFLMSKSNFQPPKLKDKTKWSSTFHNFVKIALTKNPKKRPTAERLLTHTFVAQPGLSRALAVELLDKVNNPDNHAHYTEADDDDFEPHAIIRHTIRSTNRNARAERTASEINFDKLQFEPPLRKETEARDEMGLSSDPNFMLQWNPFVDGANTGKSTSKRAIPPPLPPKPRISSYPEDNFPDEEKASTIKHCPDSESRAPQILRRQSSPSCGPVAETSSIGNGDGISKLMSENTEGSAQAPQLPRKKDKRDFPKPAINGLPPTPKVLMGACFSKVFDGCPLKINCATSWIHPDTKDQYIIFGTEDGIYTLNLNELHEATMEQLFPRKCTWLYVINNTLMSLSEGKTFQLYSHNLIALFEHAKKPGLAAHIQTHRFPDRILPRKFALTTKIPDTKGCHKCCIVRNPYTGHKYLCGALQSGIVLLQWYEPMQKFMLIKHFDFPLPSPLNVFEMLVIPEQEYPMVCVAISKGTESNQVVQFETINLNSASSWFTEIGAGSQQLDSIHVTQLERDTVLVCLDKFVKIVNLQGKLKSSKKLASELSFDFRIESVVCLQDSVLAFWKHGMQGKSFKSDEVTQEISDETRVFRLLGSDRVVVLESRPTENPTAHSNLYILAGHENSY
Sequence of DMPK (Q09013 whole entry): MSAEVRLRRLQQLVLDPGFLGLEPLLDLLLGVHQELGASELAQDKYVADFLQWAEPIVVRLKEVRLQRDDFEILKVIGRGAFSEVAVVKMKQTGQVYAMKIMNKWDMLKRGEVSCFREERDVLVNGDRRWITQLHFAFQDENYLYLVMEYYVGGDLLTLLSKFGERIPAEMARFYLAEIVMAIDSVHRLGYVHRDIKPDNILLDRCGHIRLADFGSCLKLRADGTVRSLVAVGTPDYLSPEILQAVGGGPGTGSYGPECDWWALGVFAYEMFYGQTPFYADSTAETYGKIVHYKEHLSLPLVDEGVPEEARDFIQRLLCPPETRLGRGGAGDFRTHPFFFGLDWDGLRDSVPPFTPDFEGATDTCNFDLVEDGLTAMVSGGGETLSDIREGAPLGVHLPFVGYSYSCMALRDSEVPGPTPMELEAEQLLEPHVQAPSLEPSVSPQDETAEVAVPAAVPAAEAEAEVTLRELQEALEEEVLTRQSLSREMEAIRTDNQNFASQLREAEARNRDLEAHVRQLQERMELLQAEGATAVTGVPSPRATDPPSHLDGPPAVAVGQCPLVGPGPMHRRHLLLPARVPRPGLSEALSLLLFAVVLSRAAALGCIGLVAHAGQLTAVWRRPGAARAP
Sequence of ERBB4 (Q15303 whole entry): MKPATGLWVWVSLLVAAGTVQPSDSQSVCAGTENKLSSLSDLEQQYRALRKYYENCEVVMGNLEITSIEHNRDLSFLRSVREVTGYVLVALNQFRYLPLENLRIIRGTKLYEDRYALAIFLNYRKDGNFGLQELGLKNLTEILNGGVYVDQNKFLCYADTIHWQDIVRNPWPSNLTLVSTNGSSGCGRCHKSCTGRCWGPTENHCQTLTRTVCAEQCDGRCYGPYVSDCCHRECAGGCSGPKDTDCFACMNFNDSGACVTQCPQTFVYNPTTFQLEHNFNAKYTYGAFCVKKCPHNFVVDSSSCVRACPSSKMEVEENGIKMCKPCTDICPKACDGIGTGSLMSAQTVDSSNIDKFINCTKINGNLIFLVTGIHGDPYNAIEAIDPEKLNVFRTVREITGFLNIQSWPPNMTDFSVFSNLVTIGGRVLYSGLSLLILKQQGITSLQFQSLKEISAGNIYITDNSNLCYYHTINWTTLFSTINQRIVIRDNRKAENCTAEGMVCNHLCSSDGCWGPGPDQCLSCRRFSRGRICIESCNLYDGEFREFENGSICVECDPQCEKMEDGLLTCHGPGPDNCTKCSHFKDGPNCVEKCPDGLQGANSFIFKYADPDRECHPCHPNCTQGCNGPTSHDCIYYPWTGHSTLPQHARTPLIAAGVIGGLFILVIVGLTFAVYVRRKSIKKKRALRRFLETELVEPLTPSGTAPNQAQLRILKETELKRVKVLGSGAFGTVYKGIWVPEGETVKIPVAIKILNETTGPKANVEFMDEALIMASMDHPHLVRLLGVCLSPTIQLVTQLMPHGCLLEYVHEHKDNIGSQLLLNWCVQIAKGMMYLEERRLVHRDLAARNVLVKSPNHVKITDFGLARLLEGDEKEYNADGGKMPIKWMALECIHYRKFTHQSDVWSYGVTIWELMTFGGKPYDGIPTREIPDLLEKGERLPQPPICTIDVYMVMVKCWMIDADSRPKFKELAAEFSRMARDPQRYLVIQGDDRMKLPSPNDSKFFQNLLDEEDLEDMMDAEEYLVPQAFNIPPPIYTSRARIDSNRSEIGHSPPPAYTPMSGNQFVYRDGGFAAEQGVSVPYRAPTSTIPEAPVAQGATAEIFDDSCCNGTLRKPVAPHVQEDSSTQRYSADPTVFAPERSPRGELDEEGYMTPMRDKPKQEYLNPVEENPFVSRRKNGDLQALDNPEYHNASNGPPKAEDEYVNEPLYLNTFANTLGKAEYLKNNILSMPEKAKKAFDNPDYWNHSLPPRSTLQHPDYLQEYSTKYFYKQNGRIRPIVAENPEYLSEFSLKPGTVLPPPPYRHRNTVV

With C=CC(=O)Nc1cc(-n2c(=O)ccc3cnc4ccc(-n5cccn5)cc4c32)ccc1C [CHMFL-BTK-11] the remaining binding at 1 µM (EPHB4) was 100%, the remaining binding at 1 µM (GSK3A) was 90% and the remaining binding at 1 µM (PRP4) was 93%. The remaining binding at 1 µM (HPK1) was 94%, the remaining binding at 1 µM (BRAF(V600E)) was 100% and the remaining binding at 1 µM (SBK1) was 81%. It also gave a remaining binding at 1 µM [1] of 100%, a remaining binding at 1 µM (DMPK) of 100% and a remaining binding at 1 µM (ROCK2) of 97%. For the same compound, the remaining binding at 1 µM (CTK) was 65%, the remaining binding at 1 µM (FRK) was 100% and the remaining binding at 1 µM [2] was 5.7%. The remaining binding at 1 µM (LATS1) was 99%, the remaining binding at 1 µM (NIM1) was 100% and the remaining binding at 1 µM [3] was 100%. The remaining binding at 1 µM (ERBB4) was 91%, the remaining binding at 1 µM (PKN1) was 100% and the remaining binding at 1 µM (MRCKA) was 100%. For the same compound, the remaining binding at 1 µM [4] was 79%, the remaining binding at 1 µM (ERK3) was 100% and the remaining binding at 1 µM (MAP4K5) was 100%. For the same compound, the remaining binding at 1 µM (CLK3) was 100%, the remaining binding at 1 µM (ACVR1) was 100% and the remaining binding at 1 µM (ITK) was 100%.
